Assay [1] concerns Aβ 40 in rat brain. Kind of assay: In vivo inhibition of beta-secretase: Aβ40 reduction in rat brain. As to conditions: 10 mpk, after 4 h. In a few lines: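 Rats were dosed by oral gavage at up to 100 mg/kg in 2% HPMC, 1% Tween80, pH 2.2, with vehicle-only controls. Supernatant Aβ40 was measured by ECL sandwich ELISA with biotinylated-4G8 capture and C-terminal Fab40 detection.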

Assay [2] has as its target human recombinant BACE2 (Homo sapiens (Human), UniProt Q9Y5Z0). Kind of assay: In vitro enzymatic BACE2 FRET assay. As to conditions: read-out: IC50 IP (μM) BACE2 enzyme. Format: biochemical. The procedure, abridged:
(§1)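 Fluorescence from cleavage of a quenched peptide spanning the BACE site (50 nM) was read at 488 nm excitation, 590 nm emission. Purified enzyme (Ni-NTA) and compound reacted for one hour before a Tris stop shifted pH to neutral.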

Assay [3] addresses Recombinant Cat D (Homo sapiens (Human), UniProt P07339). Kind of assay: In vitro enzymatic Cathepsin D (Cat D) FRET assay. Format: biochemical. To be noted: read-out: IC50 IP (μM) CatD. In a few lines: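 Fluorescence at 500 nm excitation and 580 nm emission reports cleavage of a quenched fluorophore–quencher peptide (20 nM) by CHO-expressed Cat D. Reactions ran one hour in 0.05 M citrate pH 3.5, 5 mM CHAPS, 10% DMSO final before a Tris stop raised pH to neutrality.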

Assay [4] concerns the target human recombinant BACE1 (Homo sapiens (Human), UniProt P56817). Kind of assay: In vitro enzymatic BACE1 FRET assay. The class given is biochemical. To be noted: read-out: IC50 IP (μM) BACE1 enzyme. In a few lines: as §1
The test system of assay [5] is Aβ 40 in rat CSF. Kind of assay: In vivo inhibition of beta-secretase: Aβ40 reduction in rat CSF. To be noted: 10 mpk, after 4 h. In a few lines:
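Male Sprague Dawley rats (200 g) dosed orally in 2% HPMC, 1% Tween80, pH 2.2, at 3, 10 or 30 mg/kg; CSF and brain taken 4 h later. Brain homogenate centrifuged at 355,000 g; Aβ40 measured by ECL sandwich ELISA (4G8 capture, Abeta40 C-terminal Fab detection), as % reduction versus vehicle controls.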

For assay [6], the system named is Aβ40 in conditioned medium of cells stably expressing Amyloid Precursor Protein (APP). Kind of assay: In vitro BACE-1 cell-based assay (Aβ40 sandwich ELISA). To be noted: read-out: IC50 IP (μM) BACE1 cell. The procedure, abridged:
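Aβ40 in supernatants measured by time-resolved fluorescence sandwich ELISA, with pAb40 as capture and biotin-6E10 as detector antibody, each incubated at 4 °C.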
(In general: In an ELISA, binding on a coated surface is turned into a signal by an enzyme label.)

One may read the IC50 as the concentration that inhibits the measured activity by half.

Chain of Recombinant Cat D (P07339 65-412): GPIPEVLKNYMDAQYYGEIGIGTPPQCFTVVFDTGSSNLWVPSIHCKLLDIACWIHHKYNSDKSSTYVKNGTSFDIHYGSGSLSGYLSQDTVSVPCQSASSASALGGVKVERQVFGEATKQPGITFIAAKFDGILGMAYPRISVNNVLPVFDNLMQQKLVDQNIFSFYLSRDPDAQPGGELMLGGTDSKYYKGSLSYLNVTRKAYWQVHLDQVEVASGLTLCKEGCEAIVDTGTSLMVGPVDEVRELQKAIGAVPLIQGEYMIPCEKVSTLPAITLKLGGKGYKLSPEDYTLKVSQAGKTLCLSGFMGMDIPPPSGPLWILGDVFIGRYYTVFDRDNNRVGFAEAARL
Chain of human recombinant BACE1 (P56817 46-501): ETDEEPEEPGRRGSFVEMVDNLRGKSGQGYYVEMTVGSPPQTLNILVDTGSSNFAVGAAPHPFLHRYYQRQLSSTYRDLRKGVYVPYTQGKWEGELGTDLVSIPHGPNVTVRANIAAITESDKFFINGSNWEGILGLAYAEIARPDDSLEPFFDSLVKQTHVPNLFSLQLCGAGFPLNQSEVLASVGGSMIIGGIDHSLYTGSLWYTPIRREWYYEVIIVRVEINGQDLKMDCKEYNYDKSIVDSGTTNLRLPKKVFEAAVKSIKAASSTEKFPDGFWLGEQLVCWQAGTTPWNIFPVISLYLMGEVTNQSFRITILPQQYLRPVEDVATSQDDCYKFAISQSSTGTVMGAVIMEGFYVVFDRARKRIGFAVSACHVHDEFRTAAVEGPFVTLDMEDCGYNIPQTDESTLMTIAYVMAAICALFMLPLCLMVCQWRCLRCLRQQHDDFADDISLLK
Chain of human recombinant BACE2 (Q9Y5Z0 63-518): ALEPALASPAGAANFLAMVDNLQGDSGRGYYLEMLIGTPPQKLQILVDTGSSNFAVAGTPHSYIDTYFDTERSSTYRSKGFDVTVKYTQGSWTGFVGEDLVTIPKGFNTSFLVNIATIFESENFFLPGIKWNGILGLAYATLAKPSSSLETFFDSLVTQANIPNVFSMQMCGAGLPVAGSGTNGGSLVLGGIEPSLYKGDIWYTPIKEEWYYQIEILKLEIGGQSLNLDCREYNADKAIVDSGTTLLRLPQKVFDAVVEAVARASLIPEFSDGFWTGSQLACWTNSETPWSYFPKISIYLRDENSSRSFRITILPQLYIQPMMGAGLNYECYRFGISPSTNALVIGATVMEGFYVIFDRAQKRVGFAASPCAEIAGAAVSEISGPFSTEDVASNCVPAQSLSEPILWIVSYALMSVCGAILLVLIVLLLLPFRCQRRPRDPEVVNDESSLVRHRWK

With `C#CCOc1cnc2c(Nc3ccc(F)c([C@@]4(CF)N=C(N)S[C@H]5C[C@H]54)c3)ncnc2c1` [Example 941, N-(3-((1S,5S,6S)-3-amino-5-(fluoromethyl)-2-thia-4-azabicyclo[4.1.0]hept-3-en-5-yl)-4-fluorophenyl)-7 (2-propyn-1-yloxy)pyrido[3,2-d]pyrimidin-4-amine], the “% Aβ 40 reduction in rat brain at 10 mpk” value in assay [1] was determined as 2%. In addition, the IC50 in assay [2] is 0.2 µM; in assay [3], 780 µM; in assay [4], 0.00962 µM; in assay [6], 0.0129 µM. Besides, in assay [5], the “% Aβ 40 reduction in rat CSF at 10 mpk” value was found to be 41%.

As for `C#CCOc1cnc2c(Nc3cc(F)c(F)c([C@@]4(C)N=C(N)S[C@@]5(C(F)F)C[C@@H]45)c3)ncnc2c1` [Example 945, N-(3-((1S,5S,6S)-3-amino-1-(difluoromethyl)-5-methyl-2-thia-4-azabicyclo[4.1.0]hept-3-en-5-yl)-4,5-difluorophenyl)-7-(2-propyn-1-yloxy)pyrido[3,2-d]pyrimidin-4-amine], the “% Aβ 40 reduction in rat brain at 10 mpk” value in assay [1] is listed as 55%. Moreover, the IC50 in assay [2] came out at 0.0661 µM; in assay [3], 381 µM; in assay [4] it was 0.00105 µM; in assay [6], 0.00709 µM. In addition, the “% Aβ 40 reduction in rat CSF at 10 mpk” value in assay [5] is given as 68%.

For the compound `C#C[C@H](C)Oc1cnc(C(=O)Nc2ccc(F)c([C@@]3(C)N=C(N)S[C@@]4(COC)C[C@H]43)c2)cn1` [Example 965, N-(3-((1S,5S,6S)-3-amino-1-(methoxymethyl)-5-methyl-2-thia-4-azabicyclo[4.1.0]hept-3-en-5-yl)-4-fluorophenyl)-5-(((1S)-1-methyl-2-propyn-1-yl)oxy)-2-pyrazinecarboxamide], the “% Aβ 40 reduction in rat brain at 10 mpk” value in assay [1] turned out to be 20%. The IC50 is 0.0638 µM in assay [2], > 400 µM in assay [3], 0.000618 µM in assay [4] and 0.00287 µM in assay [6]. Further, the “% Aβ 40 reduction in rat CSF at 10 mpk” value in assay [5] is given as 33%.

On to `C#C[C@H](C)Oc1cnc(C(=O)Nc2ccc(F)c([C@@]3(C)N=C(N)S[C@@]4(C(F)F)C[C@@H]34)c2)cn1` [Example 966, N-(3-((1S,5S,6S)-3-amino-1-(difluoromethyl)-5-methyl-2-thia-4-azabicyclo[4.1.0]hept-3-en-5-yl)-4-fluorophenyl)-5-(((1S)-1-methyl-2-propyn-1-yl)oxy)-2-pyrazinecarboxamide], for which the “% Aβ 40 reduction in rat brain at 10 mpk” value in assay [1] came to 68%. For the same compound, the IC50 in assay [2] is 0.0419 µM; in assay [3], 735 µM; in assay [4] it was 0.000385 µM; in assay [6], 0.00182 µM. In assay [5], the “% Aβ 40 reduction in rat CSF at 10 mpk” value is given as 67%.

As for `CC(C)NC(=O)[C@]12C[C@H]1[C@@](C)(c1cc(NC(=O)c3cnc(OCC(F)(F)F)cn3)ccc1F)N=C(N)S2` [Example 976, (1S,5S,6S)-3-amino-5-(2-fluoro-5-(5-(2,2,2-trifluoroethoxy)pyrazine-2-carboxamido)phenyl)-N-isopropyl-5-methyl-2-thia-4-azabicyclo[4.1.0]hept-3-ene-1-carboxamide], the “% Aβ 40 reduction in rat brain at 10 mpk” value in assay [1] stood at 16%. The IC50 is 0.268 µM in assay [2], 260 µM in assay [3], 0.000527 µM in assay [4] and 0.0101 µM in assay [6]. The “% Aβ 40 reduction in rat CSF at 10 mpk” value in assay [5] is given as 36%.

`COC[C@]12C[C@H]1[C@@](C)(c1cc(NC(=O)c3cnc(OCC4CC4)cn3)cc(F)c1F)N=C(N)S2` [Example 1021, N-(3-((1S,5S,6S)-3-amino-1-(methoxymethyl)-5-methyl-2-thia-4-azabicyclo[4.1.0]hept-3-en-5-yl)-4,5-difluorophenyl)-5-(cyclopropylmethoxy)-2-pyrazinecarboxamide]: the “% Aβ 40 reduction in rat brain at 10 mpk” value in assay [1] is given as 25%. Besides, the IC50 in assay [2] stood at 0.0808 µM; in assay [3], 776 µM; in assay [4] it was 0.000918 µM; in assay [6] it was 0.0116 µM. Further, the “% Aβ 40 reduction in rat CSF at 10 mpk” value in assay [5] amounted to 44%.

For the origin of these results see patent US20160046618A1, “Cyclopropyl Fused Thiazin-2-Amine Compounds as Beta-Secretase Inhibitors and Methods of Use” (AMGEN INC., priority 2014, published 2016).
